Results: ChEMBL document CHEMBL2062402, “Discovery of HDAC Inhibitors That Lack an Active Site Zn(2+)-Binding Functional Group” (ACS Med Chem Lett, 2012)
Where a SMILES comes first, the peptide text is derived from it. [ ]: non-standard residue; d: D form. β3hL = CC(C)C[C@H](N)CC(=O)O; Nva = CCC[C@H](N)C(=O)O

Key:
[1] = molecular target: T1, Histone deacetylase 1 (Homo sapiens, UniProt Q13547); assay: Inhibition of recombinant HDAC1 using Ac-Lys(Ac)-AMC as substrate after 30 mins by fluorescence analysis
[2] = molecular target: T2, Protein deacetylase HDAC6 (Homo sapiens, UniProt Q9UBN7); assay: Inhibition of recombinant HDAC6 using Ac-Lys(Ac)-AMC as substrate after 30 mins by fluorescence analysis
T2 sequence (Q9UBN7 whole entry): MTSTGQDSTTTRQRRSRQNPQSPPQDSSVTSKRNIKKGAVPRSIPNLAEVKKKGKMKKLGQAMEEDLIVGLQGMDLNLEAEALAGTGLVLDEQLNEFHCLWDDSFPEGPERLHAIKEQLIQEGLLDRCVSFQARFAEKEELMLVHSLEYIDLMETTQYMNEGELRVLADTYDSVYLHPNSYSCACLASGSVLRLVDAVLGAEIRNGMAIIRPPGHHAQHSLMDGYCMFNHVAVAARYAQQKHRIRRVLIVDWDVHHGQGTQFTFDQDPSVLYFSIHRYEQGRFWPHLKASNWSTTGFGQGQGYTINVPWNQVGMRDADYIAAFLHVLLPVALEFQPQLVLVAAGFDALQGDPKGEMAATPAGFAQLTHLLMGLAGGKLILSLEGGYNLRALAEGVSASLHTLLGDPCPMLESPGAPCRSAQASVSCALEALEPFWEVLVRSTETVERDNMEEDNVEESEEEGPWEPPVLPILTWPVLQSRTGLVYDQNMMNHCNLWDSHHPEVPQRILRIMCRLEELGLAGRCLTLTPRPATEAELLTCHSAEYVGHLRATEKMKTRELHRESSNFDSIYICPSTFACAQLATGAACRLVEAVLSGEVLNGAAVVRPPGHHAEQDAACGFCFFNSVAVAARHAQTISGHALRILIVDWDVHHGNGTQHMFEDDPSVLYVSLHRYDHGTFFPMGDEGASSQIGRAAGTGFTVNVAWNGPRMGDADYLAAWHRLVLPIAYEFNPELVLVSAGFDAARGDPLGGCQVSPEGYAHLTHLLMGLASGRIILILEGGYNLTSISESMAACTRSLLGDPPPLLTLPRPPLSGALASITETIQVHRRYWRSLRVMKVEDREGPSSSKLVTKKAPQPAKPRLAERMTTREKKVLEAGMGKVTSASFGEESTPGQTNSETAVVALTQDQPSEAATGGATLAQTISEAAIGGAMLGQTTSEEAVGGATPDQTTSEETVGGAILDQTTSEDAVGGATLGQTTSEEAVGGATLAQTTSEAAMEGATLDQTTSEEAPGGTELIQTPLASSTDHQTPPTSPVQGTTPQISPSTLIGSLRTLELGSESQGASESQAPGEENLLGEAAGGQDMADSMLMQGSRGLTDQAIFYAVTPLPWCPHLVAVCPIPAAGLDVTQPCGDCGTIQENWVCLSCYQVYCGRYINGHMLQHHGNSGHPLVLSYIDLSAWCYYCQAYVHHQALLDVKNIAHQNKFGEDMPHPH

[3] = molecular target: T3, Histone deacetylase 2 (Homo sapiens, UniProt Q92769); assay: Inhibition of recombinant HDAC2 using Ac-Lys(Ac)-AMC as substrate after 30 mins by fluorescence analysis
[4] = test system: HL-60; assay: cells; format: functional; conditions: Homo sapiens, HL-60, 72 h
Description: Growth inhibition of human HL60 cells after 72 hrs by XTT assay

[5] = test system: HeLa; assay: cells; format: functional; conditions: Homo sapiens, 72 h
Description: Growth inhibition of human HeLa cells after 72 hrs by XTT assay

[6] = test system: Jurkat; assay: cells; format: functional; conditions: Homo sapiens, 72 h
Description: Growth inhibition of human Jurkat cells after 72 hrs by XTT assay

[7] = test system: MCF7; assay: cells; format: functional; conditions: Homo sapiens, MCF7, 72 h
Description: Growth inhibition of human MCF7 cells after 72 hrs by XTT assay

[8] = molecular target: T4, Histone deacetylase 3/Nuclear receptor corepressor 2 (HDAC3/NCoR2) (Homo sapiens, UniProt O15379); assay: Inhibition of recombinant HDAC3/NCoR2 using Ac-Lys(Ac)-AMC as substrate after 30 mins by fluorescence analysis; format: protein-complex assay
[9] = Growth inhibition of human HEK293 cells at 100 uM after 72 hrs by XTT assay; format: cell-based; conditions: read-out: GI
[10] = molecular target: T5, Protein deacetylase HDAC6 (Homo sapiens) (UniProt Q9UBN7); assay: Inhibition of recombinant HDAC6 using Ac-Lys(Ac)-AMC as substrate at 20 uM after 30 mins by fluorescence analysis
T5 sequence (whole entry): T2 sequence (Q9UBN7 whole entry)

[11] = in vitro; conditions: human, HEK293 cells
Description: Growth inhibition of human HEK293 cells after 72 hrs by XTT assay

[12] = Ratio of IC50 for valproic acid to compound for recombinant using Ac-Lys(Ac)-AMC as substrate after 30 mins by fluorescence analysis; conditions: Homo sapiens
[13] = molecular target: T6, Histone deacetylase 3/Nuclear receptor corepressor 2 (HDAC3/NCoR2) (Homo sapiens) (UniProt O15379+Q9Y618); assay: Inhibition of recombinant HDAC3/NCoR2 at 1 uM; format: protein-complex assay
[14] = molecular target: T1, Histone deacetylase 1; assay: Ratio of IC50 for valproic acid to compound for recombinant HDAC1 using Ac-Lys(Ac)-AMC as substrate after 30 mins by fluorescence analysis
[15] = molecular target: T1, Histone deacetylase 1; assay: Competitive inhibition of HDAC1 using Ac-Lys(Ac)-AMC as substrate by Lineweaver-Burk plot analysis
[16] = molecular target: T4, Histone deacetylase 3/Nuclear receptor corepressor 2 (HDAC3/NCoR2); assay: Competitive inhibition of HDAC3/NCoR2 using Ac-Lys(Ac)-AMC as substrate by Lineweaver-Burk plot analysis; format: protein-complex assay
[17] = molecular target: T6, Histone deacetylase 3/Nuclear receptor corepressor 2 (HDAC3/NCoR2) (Homo sapiens); assay: Ratio of IC50 for valproic acid to compound for recombinant HDAC3/NCoR2 using Ac-Lys(Ac)-AMC as substrate after 30 mins by fluorescence analysis; format: protein-complex assay
[18] = molecular target: Histone deacetylase (Homo sapiens) (UniProt Q13547+O15379+Q9UBN7+Q92769+Q9UQL6+Q8WUI4+Q9BY41+Q96DB2+P56524+Q9UKV0+Q969S8); assay: Inhibition of HDAC in human Jurkat cells assessed as increase in acetylated histone H3 after 24 hrs by Western blot analysis; format: cell-based
[19] = molecular target: T3, Histone deacetylase 2; assay: Competitive inhibition of HDAC2 using Ac-Lys(Ac)-AMC as substrate by Lineweaver-Burk plot analysis
[20] = molecular target: T3, Histone deacetylase 2; assay: Ratio of IC50 for valproic acid to compound for recombinant HDAC2 using Ac-Lys(Ac)-AMC as substrate after 30 mins by fluorescence analysis

T4 sequence (O15379 whole entry): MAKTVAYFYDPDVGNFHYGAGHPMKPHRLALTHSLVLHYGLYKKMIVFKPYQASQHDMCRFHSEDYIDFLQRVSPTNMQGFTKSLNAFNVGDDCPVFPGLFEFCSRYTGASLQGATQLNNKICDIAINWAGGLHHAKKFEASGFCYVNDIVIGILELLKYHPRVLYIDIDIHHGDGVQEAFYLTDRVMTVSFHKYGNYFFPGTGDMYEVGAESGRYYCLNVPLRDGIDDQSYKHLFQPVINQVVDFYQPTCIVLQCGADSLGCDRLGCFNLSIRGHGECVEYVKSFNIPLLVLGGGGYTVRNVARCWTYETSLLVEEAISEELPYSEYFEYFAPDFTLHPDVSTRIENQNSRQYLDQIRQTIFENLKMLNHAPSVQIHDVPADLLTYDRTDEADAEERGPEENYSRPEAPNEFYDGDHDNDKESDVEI
T4 sequence (Q9Y618 whole entry, further chain): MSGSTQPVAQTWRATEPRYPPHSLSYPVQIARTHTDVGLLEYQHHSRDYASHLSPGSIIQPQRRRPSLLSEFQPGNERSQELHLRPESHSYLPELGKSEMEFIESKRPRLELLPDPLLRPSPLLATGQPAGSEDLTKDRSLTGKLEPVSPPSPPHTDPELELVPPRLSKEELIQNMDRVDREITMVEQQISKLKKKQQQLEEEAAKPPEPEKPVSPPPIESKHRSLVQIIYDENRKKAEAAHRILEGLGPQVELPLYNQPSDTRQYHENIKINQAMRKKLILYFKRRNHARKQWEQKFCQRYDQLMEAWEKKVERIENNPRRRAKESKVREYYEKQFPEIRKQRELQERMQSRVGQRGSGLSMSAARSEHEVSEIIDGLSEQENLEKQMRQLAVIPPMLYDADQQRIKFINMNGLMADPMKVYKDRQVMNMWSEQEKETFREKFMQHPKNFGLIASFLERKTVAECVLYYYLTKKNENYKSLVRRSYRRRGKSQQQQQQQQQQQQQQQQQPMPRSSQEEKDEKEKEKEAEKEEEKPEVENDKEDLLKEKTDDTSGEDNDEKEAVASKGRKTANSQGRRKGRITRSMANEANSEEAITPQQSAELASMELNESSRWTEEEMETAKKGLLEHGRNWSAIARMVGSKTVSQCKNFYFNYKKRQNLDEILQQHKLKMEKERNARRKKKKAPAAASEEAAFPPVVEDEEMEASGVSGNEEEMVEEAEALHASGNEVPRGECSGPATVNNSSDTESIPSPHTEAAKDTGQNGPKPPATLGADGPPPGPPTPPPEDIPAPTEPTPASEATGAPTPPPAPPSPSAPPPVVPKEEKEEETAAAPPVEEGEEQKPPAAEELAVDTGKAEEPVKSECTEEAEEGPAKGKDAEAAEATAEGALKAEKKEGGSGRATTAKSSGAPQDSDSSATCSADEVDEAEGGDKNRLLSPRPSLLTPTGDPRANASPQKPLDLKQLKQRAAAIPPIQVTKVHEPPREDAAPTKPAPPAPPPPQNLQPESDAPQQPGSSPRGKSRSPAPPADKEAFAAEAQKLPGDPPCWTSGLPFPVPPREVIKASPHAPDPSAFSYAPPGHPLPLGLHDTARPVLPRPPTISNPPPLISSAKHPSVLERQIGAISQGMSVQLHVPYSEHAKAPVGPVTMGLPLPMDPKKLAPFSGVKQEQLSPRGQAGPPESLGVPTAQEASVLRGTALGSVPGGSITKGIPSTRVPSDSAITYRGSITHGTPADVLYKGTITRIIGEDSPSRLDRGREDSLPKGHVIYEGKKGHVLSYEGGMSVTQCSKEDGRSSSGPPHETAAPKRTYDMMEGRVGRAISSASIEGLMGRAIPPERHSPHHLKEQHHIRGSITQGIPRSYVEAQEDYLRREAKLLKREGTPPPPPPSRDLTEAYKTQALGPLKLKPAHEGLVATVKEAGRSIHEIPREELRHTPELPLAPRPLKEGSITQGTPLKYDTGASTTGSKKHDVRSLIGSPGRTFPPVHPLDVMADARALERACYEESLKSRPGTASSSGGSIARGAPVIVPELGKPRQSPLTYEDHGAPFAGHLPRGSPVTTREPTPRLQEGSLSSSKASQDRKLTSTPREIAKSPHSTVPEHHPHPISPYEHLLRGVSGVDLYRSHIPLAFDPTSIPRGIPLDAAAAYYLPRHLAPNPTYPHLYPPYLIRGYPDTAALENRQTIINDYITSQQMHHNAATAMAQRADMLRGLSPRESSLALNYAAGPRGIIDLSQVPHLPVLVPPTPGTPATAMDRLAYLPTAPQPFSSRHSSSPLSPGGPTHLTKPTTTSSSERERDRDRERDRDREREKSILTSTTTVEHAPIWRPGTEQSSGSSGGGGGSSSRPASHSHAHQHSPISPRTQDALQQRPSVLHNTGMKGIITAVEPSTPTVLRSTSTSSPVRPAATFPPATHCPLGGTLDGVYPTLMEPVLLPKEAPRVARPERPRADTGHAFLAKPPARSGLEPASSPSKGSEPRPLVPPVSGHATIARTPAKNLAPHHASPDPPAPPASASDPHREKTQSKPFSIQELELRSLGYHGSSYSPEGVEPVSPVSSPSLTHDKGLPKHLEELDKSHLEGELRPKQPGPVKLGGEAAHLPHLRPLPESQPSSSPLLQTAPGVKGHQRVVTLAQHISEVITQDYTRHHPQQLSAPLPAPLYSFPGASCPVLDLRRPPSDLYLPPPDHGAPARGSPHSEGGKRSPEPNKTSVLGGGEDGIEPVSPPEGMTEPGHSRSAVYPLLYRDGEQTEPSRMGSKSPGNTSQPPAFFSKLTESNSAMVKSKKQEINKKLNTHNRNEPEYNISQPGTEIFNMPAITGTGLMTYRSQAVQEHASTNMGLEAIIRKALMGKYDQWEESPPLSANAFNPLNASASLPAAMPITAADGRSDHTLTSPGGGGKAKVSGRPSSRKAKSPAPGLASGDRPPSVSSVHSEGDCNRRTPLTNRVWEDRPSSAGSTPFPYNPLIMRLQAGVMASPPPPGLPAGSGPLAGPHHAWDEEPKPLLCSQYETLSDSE
T3 sequence (Q92769 whole entry): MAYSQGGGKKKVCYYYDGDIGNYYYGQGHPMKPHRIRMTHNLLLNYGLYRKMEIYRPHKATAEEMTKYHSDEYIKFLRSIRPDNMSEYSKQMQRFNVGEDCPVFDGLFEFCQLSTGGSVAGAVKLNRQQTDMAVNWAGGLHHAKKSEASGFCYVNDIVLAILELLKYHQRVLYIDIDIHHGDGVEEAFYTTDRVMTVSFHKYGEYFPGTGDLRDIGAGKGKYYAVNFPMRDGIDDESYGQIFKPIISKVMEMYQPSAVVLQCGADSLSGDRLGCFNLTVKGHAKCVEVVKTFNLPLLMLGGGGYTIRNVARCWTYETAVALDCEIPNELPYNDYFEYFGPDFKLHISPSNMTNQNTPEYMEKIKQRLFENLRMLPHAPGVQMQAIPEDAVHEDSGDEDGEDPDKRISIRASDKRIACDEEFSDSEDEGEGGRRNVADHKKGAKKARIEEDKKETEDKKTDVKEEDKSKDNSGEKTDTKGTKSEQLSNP
T1 sequence (Q13547 whole entry): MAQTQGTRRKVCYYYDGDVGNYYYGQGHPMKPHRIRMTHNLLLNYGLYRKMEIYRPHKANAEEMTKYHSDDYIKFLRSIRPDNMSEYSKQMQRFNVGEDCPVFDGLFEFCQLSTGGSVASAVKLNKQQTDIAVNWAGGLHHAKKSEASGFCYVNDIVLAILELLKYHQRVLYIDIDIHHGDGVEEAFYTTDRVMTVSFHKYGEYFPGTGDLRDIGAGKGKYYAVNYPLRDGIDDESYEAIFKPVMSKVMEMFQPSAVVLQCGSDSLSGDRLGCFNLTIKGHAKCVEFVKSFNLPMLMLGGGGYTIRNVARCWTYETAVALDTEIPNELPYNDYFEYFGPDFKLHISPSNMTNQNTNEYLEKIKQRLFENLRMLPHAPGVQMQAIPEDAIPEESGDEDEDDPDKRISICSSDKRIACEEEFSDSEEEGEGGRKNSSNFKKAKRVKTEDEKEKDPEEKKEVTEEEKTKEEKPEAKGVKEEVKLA

Compound | IC50 [1] | IC50 [2] | IC50 [3] | GI50 [4] | GI50 [5] | GI50 [6] | GI50 [7] | IC50 [8] | inhibition at 72 h, 100 µM [9] | inhibition [10] | GI50 at 72 h [11] | Ratio IC50 [12] | inhibition [13] | Ratio IC50 [14] | Ki [15] | Ki [16] | Ratio IC50 [17] | inhibition [18] | Ki [19] | Ratio IC50 [20]
CCC[C@@H]1NC(=O)[C@H](C)NC(=O)C[C@H](CC(C)C)NC(=O)[C@H](Cc2c[nH]c3ccccc23)NC1=O (cyclo(A[Nva]W[β3hL])) | 980 nM | > 20000 nM | 1500 nM | 8200 nM | 81000 nM | 12000 nM | 40000 nM | 1400 nM | 33% | 37% | > 100000 nM |  |  |  |  |  |  |  |  | 
CCC[C@@H]1NC(=O)[C@H](C)NC(=O)C[C@H](CC(C)C)NC(=O)[C@H](Cc2cn(CN(C)C)c3ccccc23)NC1=O | 680 nM | > 20000 nM | 1400 nM | 2800 nM | 62000 nM | 8100 nM | 47000 nM | 800 nM |  | 46% | 100000 nM | 40 | 60% | 40 | 49 nM | 37 nM | 200 | Dose-dependent effect | 33 nM | 40
CCC(=O)CCCCC[C@@H]1NC(=O)[C@H]2CCCCN2C(=O)[C@H]([C@@H](C)CC)NC(=O)[C@H](Cc2cn(OC)c3ccccc23)NC1=O [APICIDIN] |  |  |  | 280 nM | 1400 nM | 830 nM | 6800 nM |  |  |  | 11000 nM |  |  |  |  |  |  |  |  | 
